How the values were obtained:
non-expressing oocytes = format: cell-based, Xenopus laevis; details: footnote b: highest intracellular concentration tested was 30 mM (solubility); for Trans-stimulation: total [3H]CQ transport, non-expressing oocytes: mean ± SEM, SEM; for Trans-stimulation data: total [3H]CQ transport: non-expressing oocytes, normalised to the oocyte type control (control = 100)
Method: Unless specified otherwise, the transport assays were conducted over 1.5 h at 27.5 °C and the reaction buffer was ND96 (96 mM NaCl, 2 mM KCl, 1 mM MgCl2, 1.8 mM CaCl2, 10 mM MES and 10 mM Tris-base) at pH 5.5.
The intracellular concentrations were calculated using previous estimates of the volume of stage V–VI oocytes (~400 nL[60]). […] The oocytes were injected with VF-6 suspended in 25 nL ND96 buffer adjusted to pH 5.0, 5.5, 6.0 or 7.0, which corresponded to the injection of 2.5–250 fmol of H^+. The Na^+-dependence of the trans-stimulatory effect of VF-6 was assessed by injecting the oocytes with VF-6 suspended in ND96 buffer (pH 5.5) or a Na^+-free version of this buffer (the Na^+ was replaced with choline).
At least four independent experiments were performed (on different days and using oocytes from different frogs), and within each experiment measurements were made from ten oocytes per treatment.

PfCRT^3D7 = PfCRT^3D7 (Plasmodium falciparum, UniProt Q8IBZ9); assay: cell-based; format: cell-based; details: for Trans-stimulation data: PfCRT-mediated [3H]CQ transport: 2nd of 6 trans-stimulation columns, footnote b: due to solubility the highest intracellular concentration tested was 30 mM, normalised to the oocyte type control = 100; for Trans-stimulation data: total [3H]CQ transport / PfCRT-mediated [3H]CQ transport, trans-stimulation (% PfCRT3D7 control): PfCRT3D7 oocytes; for Trans-stimulation data: total [3H]CQ transport / Trans-stimulation: total [3H]CQ transport, PfCRT3D7 oocytes: footnote b: highest intracellular concentration tested was 30 mM (solubility); for Trans-stimulation data: total [3H]CQ transport: normalised to the oocyte type control (control = 100); for Trans-stimulation: total [3H]CQ transport, PfCRT3D7 oocytes: mean ± SEM, SEM
PfCRT^3D7, sequence (Q8IBZ9 59-398): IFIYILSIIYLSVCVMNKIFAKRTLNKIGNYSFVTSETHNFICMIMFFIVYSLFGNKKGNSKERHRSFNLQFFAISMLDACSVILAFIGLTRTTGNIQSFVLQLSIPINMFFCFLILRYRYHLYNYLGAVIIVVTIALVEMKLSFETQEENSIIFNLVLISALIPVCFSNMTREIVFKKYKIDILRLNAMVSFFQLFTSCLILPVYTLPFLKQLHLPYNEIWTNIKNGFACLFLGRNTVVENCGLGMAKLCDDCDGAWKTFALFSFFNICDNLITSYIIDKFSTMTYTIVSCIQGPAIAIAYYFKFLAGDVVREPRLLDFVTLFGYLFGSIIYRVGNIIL
Outline: (§1)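 Transport measured in Xenopus oocytes expressing the transporters, 1.5 h at 27.5 °C in ND96 pH 5.5 unless noted. For trans-stimulation, VF-6 injected in 25 nL ND96 at pH 5.0–7.0 or Na^+-free (choline) buffer; intracellular levels based on ~400 nL oocyte volume. Ten oocytes per treatment, ≥4 experiments.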

PfCRT^Dd2 [1] = biological target: T1, PfCRT^Dd2 (Plasmodium falciparum, UniProt Q9N623, A220S/I356T/K76T/M74I/N326S/N75E/Q271E/R371I); assay: cell-based; format: cell-based; details: for Trans-stimulation data: total [3H]CQ transport / PfCRT-mediated [3H]CQ transport, trans-stimulation (% PfCRTDd2 control): PfCRTDd2 oocytes; for Trans-stimulation data: total [3H]CQ transport / Trans-stimulation: total [3H]CQ transport, PfCRTDd2 oocytes: footnote b: highest intracellular concentration tested was 30 mM (solubility); for Trans-stimulation data: total [3H]CQ transport: normalised to the oocyte type control (control = 100); for PfCRT-mediated [3H]CQ transport, trans-stimulation by injected solute, PfCRTDd2 / Trans-stimulation data: PfCRT-mediated [3H]CQ transport: footnote b: due to solubility the highest intracellular concentration tested was 30 mM; for PfCRT-mediated [3H]CQ transport, trans-stimulation by injected solute, PfCRTDd2: background subtracted; for Trans-stimulation: total [3H]CQ transport, PfCRTDd2 oocytes: mean ± SEM, SEM; for Trans-stimulation data: PfCRT-mediated [3H]CQ transport: normalised to the oocyte type control = 100
T1 sequence (Q9N623 whole entry A220S/I356T/K76T/M74I/N326S/N75E/Q271E/R371I): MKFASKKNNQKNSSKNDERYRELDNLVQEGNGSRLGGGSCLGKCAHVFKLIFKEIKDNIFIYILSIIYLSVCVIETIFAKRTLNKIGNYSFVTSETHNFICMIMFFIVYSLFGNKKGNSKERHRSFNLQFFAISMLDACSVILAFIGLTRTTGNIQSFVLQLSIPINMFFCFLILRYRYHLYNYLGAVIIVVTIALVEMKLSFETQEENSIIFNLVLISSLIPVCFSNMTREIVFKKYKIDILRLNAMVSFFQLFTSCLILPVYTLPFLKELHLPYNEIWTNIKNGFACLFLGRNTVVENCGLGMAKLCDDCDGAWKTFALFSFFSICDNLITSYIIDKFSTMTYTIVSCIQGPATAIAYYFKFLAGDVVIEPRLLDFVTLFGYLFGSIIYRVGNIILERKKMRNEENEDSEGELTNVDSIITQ
Outline: as §1

PfCRT^Ecu1110 [2] = biological target: T2, PfCRT^Ecu1110 (Plasmodium falciparum, UniProt Q9N623, A220S/I356L/K76T/N326D); assay: cell-based; format: cell-based; details: for Trans-stimulation data: total [3H]CQ transport / PfCRT-mediated [3H]CQ transport, trans-stimulation (% PfCRTEcu1110 control): PfCRTEcu1110 oocytes; for Trans-stimulation data: total [3H]CQ transport / Trans-stimulation: total [3H]CQ transport, PfCRTEcu1110 oocytes: footnote b: highest intracellular concentration tested was 30 mM (solubility); for Trans-stimulation data: total [3H]CQ transport: normalised to the oocyte type control (control = 100); for Trans-stimulation: total [3H]CQ transport, PfCRTEcu1110 oocytes: mean ± SEM, SEM; for Trans-stimulation data: PfCRT-mediated [3H]CQ transport: footnote b: due to solubility the highest intracellular concentration tested was 30 mM, normalised to the oocyte type control = 100
T2 sequence (Q9N623 whole entry A220S/I356L/K76T/N326D): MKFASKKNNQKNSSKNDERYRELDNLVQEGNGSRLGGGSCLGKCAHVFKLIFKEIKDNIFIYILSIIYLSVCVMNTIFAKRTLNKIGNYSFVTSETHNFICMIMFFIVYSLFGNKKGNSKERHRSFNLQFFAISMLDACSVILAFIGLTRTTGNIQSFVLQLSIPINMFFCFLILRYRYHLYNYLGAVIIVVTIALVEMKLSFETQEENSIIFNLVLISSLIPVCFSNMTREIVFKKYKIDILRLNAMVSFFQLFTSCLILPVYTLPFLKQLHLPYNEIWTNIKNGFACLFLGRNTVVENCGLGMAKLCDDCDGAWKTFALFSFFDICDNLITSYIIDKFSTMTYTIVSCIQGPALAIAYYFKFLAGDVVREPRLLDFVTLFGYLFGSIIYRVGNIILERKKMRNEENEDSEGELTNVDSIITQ
Outline: as §1

PfNT1 = biological target: T3, PfNT1 (Plasmodium falciparum, UniProt Q8IDM6); assay: cell-based; format: cell-based; details: footnote b: highest intracellular concentration tested was 30 mM (solubility); for Trans-stimulation data: total [3H]CQ transport: PfNT1 oocytes, normalised to the oocyte type control (control = 100); for Trans-stimulation: total [3H]CQ transport, PfNT1 oocytes: mean ± SEM, SEM
T3 construct: expressed in transfected cells; host or cells: Xenopus laevis oocytes (stage V-VI), cRNA-injected
T3 sequence (Q8IDM6 whole entry): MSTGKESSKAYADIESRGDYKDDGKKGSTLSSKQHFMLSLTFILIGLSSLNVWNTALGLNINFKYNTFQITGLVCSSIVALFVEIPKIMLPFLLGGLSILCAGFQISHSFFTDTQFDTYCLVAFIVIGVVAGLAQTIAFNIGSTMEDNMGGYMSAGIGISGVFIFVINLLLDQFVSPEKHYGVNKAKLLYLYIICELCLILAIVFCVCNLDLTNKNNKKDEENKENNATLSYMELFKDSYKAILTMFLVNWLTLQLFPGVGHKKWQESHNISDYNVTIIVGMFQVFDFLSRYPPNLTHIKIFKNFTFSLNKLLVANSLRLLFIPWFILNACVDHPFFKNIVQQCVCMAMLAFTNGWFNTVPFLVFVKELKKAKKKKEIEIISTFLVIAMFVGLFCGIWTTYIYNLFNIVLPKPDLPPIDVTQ
Outline: as §1

PfCRT^Dd2 [3] = biological target: T1, PfCRT^Dd2; assay: [3H]CQ uptake into Xenopus oocytes, cis-inhibition by unlabelled solute; format: cell-based; details: PfCRTDd2 oocytes, background [3H]CQ accumulation subtracted, normalised to oocyte type control
Outline: (§2)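 Oocytes expressing PfCRT isoforms, or non-expressing controls, were incubated 1.5 h at 27.5 °C in ND96 buffer pH 5.5 (96 mM NaCl, 2 mM KCl, 1 mM MgCl2, 1.8 mM CaCl2, 10 mM MES, 10 mM Tris-base), measuring uptake from acidic medium into cytosol. Oocytes were washed ice-cold, SDS-lysed and counted by scintillation.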

PfCRT^Ecu1110 [4] = biological target: T2, PfCRT^Ecu1110; assay: as above; format: cell-based; details: PfCRTEcu1110 oocytes, background [3H]CQ accumulation subtracted, normalised to oocyte type control
Outline: as §2

[5] = [test solute]i = 5 mM (intracellular), normalised to oocyte type control
[6] = cell marked b: highest intracellular concentration tested was 30 mM due to solubility

Sequence | Trans-stimulation: total [3H]CQ transport, non-expressing oocytes (non-expressing oocytes) | Trans-stimulation data: total [3H]CQ transport (non-expressing oocytes) | Trans-stimulation data: PfCRT-mediated [3H]CQ transport (PfCRT^3D7) | Trans-stimulation data: total [3H]CQ transport (PfCRT^3D7) | Trans-stimulation: total [3H]CQ transport, PfCRT3D7 oocytes (PfCRT^3D7) | Trans-stimulation data: total [3H]CQ transport (PfCRT^Dd2 [1]) | PfCRT-mediated [3H]CQ transport, trans-stimulation by injected solute, PfCRTDd2 (PfCRT^Dd2 [1]) | Trans-stimulation: total [3H]CQ transport, PfCRTDd2 oocytes (PfCRT^Dd2 [1]) | Trans-stimulation data: PfCRT-mediated [3H]CQ transport (PfCRT^Dd2 [1]) | Trans-stimulation data: total [3H]CQ transport (PfCRT^Ecu1110 [2]) | Trans-stimulation: total [3H]CQ transport, PfCRTEcu1110 oocytes (PfCRT^Ecu1110 [2]) | Trans-stimulation data: PfCRT-mediated [3H]CQ transport (PfCRT^Ecu1110 [2]) | Trans-stimulation data: total [3H]CQ transport (PfNT1) | Trans-stimulation: total [3H]CQ transport, PfNT1 oocytes (PfNT1) | further results
VEPSDTIENVK [VK-11] | 3.1 ± 0.08b % of PfCRTDd2 control | 98 ± 2.5b | 158 ± 1.9b | 163 ± 3.2b | 15 ± 0.3b % of PfCRTDd2 control | 98 ± 3.8b | 96 ± 2.1b % of PfCRTDd2 control | 98 ± 3.8b % of PfCRTDd2 control | 96 ± 2.1b | 131 ± 2.1b | 42 ± 2.1b % of PfCRTDd2 control | 127 ± 1.9b | 98 ± 3.3b | 2.7 ± 0.03b % of PfCRTDd2 control | –
VHLTPEEKSAVT [VT-12] | 2.2 ± 0.03b % of PfCRTDd2 control | – | 97 ± 2.9b | 99 ± 3.5b | 3.1 ± 0.06b % of PfCRTDd2 control | 100 ± 2.6b | 98 ± 2.2b % of PfCRTDd2 control | 100 ± 2.6b % of PfCRTDd2 control | 98 ± 2.2b | 101 ± 3.2b | 33 ± 1.6b % of PfCRTDd2 control | 99 ± 2.9b | 100 ± 2.8b | 2.7 ± 0.06b % of PfCRTDd2 control | –
YFPHFDLS [YS-8] | 2.8 ± 0.05b % of PfCRTDd2 control | 100 ± 2.8b | – | 100 ± 3.5b | 3.1 ± 0.04b % of PfCRTDd2 control | 99 ± 2.8b | 97 ± 1.7b % of PfCRTDd2 control | 99 ± 2.8b % of PfCRTDd2 control | – | 99 ± 3.8b | 32 ± 1.9b % of PfCRTDd2 control | – | 98 ± 3.5b | 3.3 ± 0.08b % of PfCRTDd2 control | PfCRT-mediated [3H]CQ transport, cis-inhibition (% PfCRTDd2 control) (PfCRT^Dd2 [3]; [test solute] = 0.5 mM): 38 ± 2.7 % PfCRTDd2 control; PfCRT-mediated [3H]CQ transport, cis-inhibition (% PfCRTDd2 control) (PfCRT^Dd2 [3]; [test solute] = 1 mM): 28 ± 0.5 % PfCRTDd2 control; PfCRT-mediated [3H]CQ transport, cis-inhibition (% PfCRTDd2 control) (PfCRT^Dd2 [3]; [test solute] = 2 mM): 17 ± 0.1 % PfCRTDd2 control; PfCRT-mediated [3H]CQ transport, cis-inhibition (% PfCRTEcu1110 control) (PfCRT^Ecu1110 [4]; [test solute] = 0.5 mM): 43 ± 3.2 % PfCRTEcu1110 control; PfCRT-mediated [3H]CQ transport, cis-inhibition (% PfCRTEcu1110 control) (PfCRT^Ecu1110 [4]; [test solute] = 1 mM): 33 ± 2.6 % PfCRTEcu1110 control; PfCRT-mediated [3H]CQ transport, cis-inhibition (% PfCRTEcu1110 control) (PfCRT^Ecu1110 [4]; [test solute] = 2 mM): 25 ± 1.5 % PfCRTEcu1110 control; PfCRT-mediated [3H]CQ transport, trans-stimulation (% PfCRT3D7 control) (PfCRT^3D7; [5]): 96 ± 2.8 % PfCRT3D7 control; PfCRT-mediated [3H]CQ transport, trans-stimulation (% PfCRT3D7 control) (PfCRT^3D7; [6]): 98 ± 2.8b % PfCRT3D7 control; PfCRT-mediated [3H]CQ transport, trans-stimulation (% PfCRTDd2 control) (PfCRT^Dd2 [1]; [5]): 98 ± 1.1 % PfCRTDd2 control; PfCRT-mediated [3H]CQ transport, trans-stimulation (% PfCRTDd2 control) (PfCRT^Dd2 [1]; [6]): 97 ± 1.7b % PfCRTDd2 control; PfCRT-mediated [3H]CQ transport, trans-stimulation (% PfCRTEcu1110 control) (PfCRT^Ecu1110 [2]; [5]): 98 ± 3.1 % PfCRTEcu1110 control; PfCRT-mediated [3H]CQ transport, trans-stimulation (% PfCRTEcu1110 control) (PfCRT^Ecu1110 [2]; [6]): 97 ± 1.5b % PfCRTEcu1110 control

Source: paper PMC7413254 (Nature Communications, 2020)
